One assay has as its target T1, human TLR9 (Homo sapiens, UniProt Q9NR96).
T1 construct: host or cells: HEK-Blue cells
T1 sequence (Q9NR96 26-1032): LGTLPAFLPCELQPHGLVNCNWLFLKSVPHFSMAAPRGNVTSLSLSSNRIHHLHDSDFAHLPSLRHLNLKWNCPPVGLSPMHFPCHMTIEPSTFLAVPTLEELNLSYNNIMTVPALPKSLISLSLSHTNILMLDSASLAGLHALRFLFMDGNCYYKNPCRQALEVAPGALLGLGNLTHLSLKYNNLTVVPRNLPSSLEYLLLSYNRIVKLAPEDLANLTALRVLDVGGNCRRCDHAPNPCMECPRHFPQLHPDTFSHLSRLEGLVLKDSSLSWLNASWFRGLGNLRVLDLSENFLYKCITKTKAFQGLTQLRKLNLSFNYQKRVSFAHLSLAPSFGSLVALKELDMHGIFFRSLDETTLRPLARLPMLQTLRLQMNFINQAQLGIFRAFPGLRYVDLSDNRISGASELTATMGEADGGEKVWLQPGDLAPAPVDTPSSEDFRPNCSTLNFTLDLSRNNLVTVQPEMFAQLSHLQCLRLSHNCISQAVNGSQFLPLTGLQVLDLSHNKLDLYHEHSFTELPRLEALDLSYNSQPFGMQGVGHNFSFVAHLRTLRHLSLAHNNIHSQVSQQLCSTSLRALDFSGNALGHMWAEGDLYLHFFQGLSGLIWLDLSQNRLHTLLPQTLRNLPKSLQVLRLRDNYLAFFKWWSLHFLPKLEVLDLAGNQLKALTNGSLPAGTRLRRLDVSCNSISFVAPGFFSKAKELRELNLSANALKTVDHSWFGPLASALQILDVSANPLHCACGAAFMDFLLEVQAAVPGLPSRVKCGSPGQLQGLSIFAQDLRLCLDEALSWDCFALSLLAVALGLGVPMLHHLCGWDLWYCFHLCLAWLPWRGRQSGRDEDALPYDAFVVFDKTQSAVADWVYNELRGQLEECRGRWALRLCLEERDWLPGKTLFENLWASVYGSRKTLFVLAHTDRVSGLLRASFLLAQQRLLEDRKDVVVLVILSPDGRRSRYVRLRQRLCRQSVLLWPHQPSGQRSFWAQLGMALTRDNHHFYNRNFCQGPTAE
The experiment in a line: TLR9 inhibition reporter assay (HEK-Blue cells, SEAP reporter). The class given is cell-based. Conditions: HEK-Blue cells overexpressing human TLR9, stimulated with ODN2006 5 nM, 22 hour incubation. In short, it runs like this:
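HEK-Blue cells overexpressing human TLR9 (25,000 cells/well), NF-κB/AP-1-driven SEAP reporter. Compounds at 0.05 nM–50 μM final, 22 h at 37 °C, 5% CO2 with agonist. SEAP detected with HEK-Blue Detection medium; % inhibition versus agonist plus DMSO and known-inhibitor wells.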
A general note: In a reporter assay the amount or activity of a reporter protein is the signal.

For another assay, the target named is T2, human TLR7 (Homo sapiens, UniProt Q9NYK1).
T2 construct: host or cells: HEK-Blue cells
T2 sequence (Q9NYK1 27-1049): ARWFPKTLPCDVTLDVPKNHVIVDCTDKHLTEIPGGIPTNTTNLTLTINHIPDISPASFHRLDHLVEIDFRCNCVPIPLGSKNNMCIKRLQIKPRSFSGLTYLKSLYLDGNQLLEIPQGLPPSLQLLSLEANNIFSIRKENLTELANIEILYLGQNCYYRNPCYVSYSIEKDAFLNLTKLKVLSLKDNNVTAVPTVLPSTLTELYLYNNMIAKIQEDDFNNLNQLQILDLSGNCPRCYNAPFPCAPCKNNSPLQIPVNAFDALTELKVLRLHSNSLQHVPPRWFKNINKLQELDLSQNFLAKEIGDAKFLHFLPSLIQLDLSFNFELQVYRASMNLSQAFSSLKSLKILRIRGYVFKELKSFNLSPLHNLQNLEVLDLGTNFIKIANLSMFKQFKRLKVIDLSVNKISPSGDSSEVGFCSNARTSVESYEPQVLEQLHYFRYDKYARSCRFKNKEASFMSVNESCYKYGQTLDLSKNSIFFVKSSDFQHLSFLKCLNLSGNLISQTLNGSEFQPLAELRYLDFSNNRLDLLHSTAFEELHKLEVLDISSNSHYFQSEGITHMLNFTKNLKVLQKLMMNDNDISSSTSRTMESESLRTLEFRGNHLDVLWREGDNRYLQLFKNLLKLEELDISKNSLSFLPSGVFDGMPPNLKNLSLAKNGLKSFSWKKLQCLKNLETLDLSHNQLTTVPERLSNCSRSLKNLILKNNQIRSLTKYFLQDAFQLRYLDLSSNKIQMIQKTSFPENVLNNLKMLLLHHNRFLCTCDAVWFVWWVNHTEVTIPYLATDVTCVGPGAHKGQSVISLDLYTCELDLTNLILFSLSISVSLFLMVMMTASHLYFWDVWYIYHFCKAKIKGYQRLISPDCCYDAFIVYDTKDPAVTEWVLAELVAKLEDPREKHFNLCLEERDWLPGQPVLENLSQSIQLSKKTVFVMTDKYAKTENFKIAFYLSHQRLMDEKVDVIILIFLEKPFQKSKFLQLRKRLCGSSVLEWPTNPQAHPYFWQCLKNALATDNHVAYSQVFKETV
The experiment in a line: TLR7 inhibition reporter assay (HEK-Blue cells, SEAP reporter). The class given is cell-based. The following applies: HEK-Blue cells overexpressing human TLR7, stimulated with gardiquimod 7.5 μM, 22 hour incubation. An outline of the steps:
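Agonists used: gardiquimod 7.5 μM (TLR7), R848 15.9 μM (TLR8), ODN2006 5 nM (TLR9), added after 30 min room-temperature compound pre-treatment (0.05 nM–50 μM) of receptor-overexpressing HEK-Blue cells. SEAP reporter (NF-κB/AP-1 driven) read after 22 h at 37 °C; inhibition scaled between agonist+DMSO and reference-inhibitor wells.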

For the molecule `Cc1nc(-c2ccc(CN3CCN(CC(C)(C)O)CC3)cc2)cc2c1cc(-c1ccc(S(C)(=O)=O)cc1)n2C1CC1` [Example 123, 1-(4-(4-(1-cyclopropyl-4-methyl-2-(4-(methylsulfonyl)phenyl)-1H-pyrrolo[3,2-c]pyridin-6-yl)benzyl)piperazin-1-yl)-2-methylpropan-2-ol], the IC50 (as a rule, the midpoint of a concentration-inhibition curve) stood at 85 nM at human TLR9 and 3700 nM against human TLR7.

`Cc1nc(-c2ccc(CN3CCN(CC(C)(C)O)CC3)cc2)cc2c1cc(-c1ccc(S(C)(=O)=O)cc1)n2C(F)F` [Example 124, 1-(4-(4-(1-(difluoromethyl)-4-methyl-2-(4-(methylsulfonyl)phenyl)-1H-pyrrolo[3,2-c]pyridin-6-yl)benzyl)piperazin-1-yl)-2-methylpropan-2-ol]: the concentration for half-maximal inhibition (IC50) on human TLR9 was 451 nM; at human TLR7, > 50000 nM.

As to `CC(C)N1CCN(Cc2ccc(-c3cc4c(cc(-c5ccc(S(C)(=O)=O)cc5)n4C)c(C(C)(C)O)n3)cc2)CC1` [Example 125, 2-(6-(4-((4-isopropylpiperazin-1-yl)methyl)phenyl)-1-methyl-2-(4-(methylsulfonyl)phenyl)-1H-pyrrolo[3,2-c]pyridin-4-yl)propan-2-ol], the IC50 at human TLR9 stood at 133 nM; at human TLR7 it was 3100 nM.

On to `CC(C)(O)CN1CCN(Cc2ccc(-c3cc4c(cn3)cc(-c3ccc(S(C)(=O)=O)cc3)n4C3CC3)cc2)CC1` [Example 128, 1-(4-(4-(1-cyclopropyl-2-(4-(methylsulfonyl)phenyl)-1H-pyrrolo[3,2-c]pyridin-6-yl)benzyl)piperazin-1-yl)-2-methylpropan-2-ol], for which the results for the IC50 against human TLR9 and at human TLR7 were 115 nM and 2800 nM, respectively.

In the case of `CC(C)(O)CCN1CCN(Cc2ccc(-c3cc4c(cn3)cc(-c3ccc(S(C)(=O)=O)cc3)n4C3CC3)cc2)CC1` [Example 129, 4-(4-(4-(1-cyclopropyl-2-(4-(methylsulfonyl)phenyl)-1H-pyrrolo[3,2-c]pyridin-6-yl)benzyl)piperazin-1-yl)-2-methylbutan-2-ol], the IC50 on human TLR9 was 118 nM; at human TLR7, 3600 nM.

Take `CC(C)(O)CN1CC2CCC(C1)N2Cc1ccc(-c2cc3c(cn2)cc(-c2ccc(S(C)(=O)=O)cc2)n3C2CC2)cc1` [Example 130, 1-(8-(4-(1-cyclopropyl-2-(4-(methylsulfonyl)phenyl)-1H-pyrrolo[3,2-c]pyridin-6-yl)benzyl)-3,8-diazabicyclo[3.2.1]octan-3-yl)-2-methylpropan-2-ol]: the concentration for half-maximal inhibition (IC50) on human TLR9 worked out at 92 nM; on human TLR7, 1900 nM.

The values are drawn from patent publication US12590091B2, “1H-pyrrolo[3,2-C]pyridine and 1H-pyrrolo[2,3-C]pyridine derivatives as TLR9 inhibitors for the treatment of fibrosis” (BRISTOL-MYERS SQUIBB COMPANY, priority 2020, dated 2026).
